Columns and labels:
BpSBPMLG = BpSBPMLG (Blautia producta, UniProt A0ABX6JB09); test: Isothermal titration calorimetry of oligosaccharide binding to BpSBPMLG; set-up: species or system Blautia producta ATCC 27340; settings: ITC
Method: The binding of β-(1,4), β-(1,3), and MLG-oligosaccharides to BpSBPMLG was measured at 25 °C in 10 mM sodium phosphate buffer (pH 7) using a MicroCal PEAQ-ITC (Malvern). The protein was extensively dialyzed against 10 mM sodium phosphate and all glycan ligands were also dissolved in the same buffer to minimize the heat of dilution. 13 injections of an oligosaccharide were titrated on BpSBPMLG present in the sample cell. Various preliminary titration setups were tried by changing amounts of protein (5–100 μM) and ligand (50 μM–10 mM) to get the best experimental conditions. Thermodynamic binding parameters [calculates binding affinity (Kd), stoichiometry (n), enthalpy (ΔH), Gibbs free energy change (ΔG), and entropy (ΔS)] were determined using the MicroCal PEAQ-ITC analysis software.

BpGH94MLG = target: T1, BpGH94MLG (Blautia producta, UniProt A0A7G5MNS2); test: Phosphorolysis activity of BpGH94MLG on substrates (TLC); assay type: biochemical, Blautia producta ATCC 27340; settings: inorganic phosphate, 37 °C
T1 sequence (A0A7G5MNS2 1-804): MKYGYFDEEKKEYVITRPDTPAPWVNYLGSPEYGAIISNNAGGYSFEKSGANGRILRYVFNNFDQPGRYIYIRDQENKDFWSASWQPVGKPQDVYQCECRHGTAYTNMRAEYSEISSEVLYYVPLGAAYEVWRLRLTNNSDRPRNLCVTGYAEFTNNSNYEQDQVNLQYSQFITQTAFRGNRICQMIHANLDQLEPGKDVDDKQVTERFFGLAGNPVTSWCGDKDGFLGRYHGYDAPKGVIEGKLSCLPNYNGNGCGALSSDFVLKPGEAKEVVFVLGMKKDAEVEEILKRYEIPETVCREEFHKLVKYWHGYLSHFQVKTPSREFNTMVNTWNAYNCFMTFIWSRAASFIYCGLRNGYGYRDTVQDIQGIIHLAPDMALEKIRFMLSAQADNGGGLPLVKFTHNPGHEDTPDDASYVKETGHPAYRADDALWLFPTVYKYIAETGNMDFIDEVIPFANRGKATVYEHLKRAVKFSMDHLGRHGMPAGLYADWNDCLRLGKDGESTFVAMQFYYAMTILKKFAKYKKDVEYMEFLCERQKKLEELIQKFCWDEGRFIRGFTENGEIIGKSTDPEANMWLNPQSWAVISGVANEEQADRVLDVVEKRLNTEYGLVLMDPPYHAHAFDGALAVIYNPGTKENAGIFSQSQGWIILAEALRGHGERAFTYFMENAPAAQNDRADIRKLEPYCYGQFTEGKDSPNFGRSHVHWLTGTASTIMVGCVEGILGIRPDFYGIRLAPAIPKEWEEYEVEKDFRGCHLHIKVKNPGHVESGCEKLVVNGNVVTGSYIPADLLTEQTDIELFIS
Method: TLC was used for analyzing enzymatic actions. […] Kinetics parameters for BpGH94MLG were determined with G4G3G, G4G4G3G and cellotriose, following a p-hydroxybenzoic acid hydrazide (PAHBAH) reducing sugar assay ([69]).

BpGH16MLG = test: Initial screening of BpGH16MLG against substrates (TLC); assay type: biochemical, Blautia producta ATCC 27340; settings: pH 5.7, 37 °C, 2 h
Method: After the appropriate incubation time, the reaction was terminated by boiling (5 min), and generated oligosaccharides were analyzed by thin layer chromatography (TLC). Typically, 1 μl of the reaction mixture was used for TLC analysis. TLC analysis was performed on Silica Gel 60 F254 (Merck), and produced sugars were visualized by spraying TLC with 5% H2SO4 in ethanol, followed by heating.

BpGH16MLG (BPGH16) = test: Michaelis-Menten kinetics of BpGH16MLG on β-glucans (DNS assay); assay type: biochemical, Blautia producta ATCC 27340; settings: native BPGH16; DNS assay; pH 5.7, 37 °C
Method: Then, reactions were terminated by boiling for 5 min. Enzymatic assays were determined with 3,5- dinitrosalicylic acid (DNS) assay ([85]). In brief, 0.05 g Na2SO3 and 1 g DNS were mixed in a 50 ml water-containing reagent bottle and stirred about 6 h using a magnetic stirrer. After that, 200 μl phenol was added and made up to 100 ml. A working solution of DNS was prepared by adding 50 μl glucose (20% (w/v) stock) in prepared 100 ml of reagent mixtures and immediately used for experiments without adding NaOH. 80 μl DNS reagent was added to the reaction mixtures and incubated at 100 °C for 10 min, followed by ice-cooling for 10 min. Consequently, recorded the developed color spectrophotometrically at 575 nm ([85]). A standard curve generated by different concentrations of maltose was used for determining released reducing sugars in each case.

BpSBPMLG, sequence (A0ABX6JB09 entry or part of it): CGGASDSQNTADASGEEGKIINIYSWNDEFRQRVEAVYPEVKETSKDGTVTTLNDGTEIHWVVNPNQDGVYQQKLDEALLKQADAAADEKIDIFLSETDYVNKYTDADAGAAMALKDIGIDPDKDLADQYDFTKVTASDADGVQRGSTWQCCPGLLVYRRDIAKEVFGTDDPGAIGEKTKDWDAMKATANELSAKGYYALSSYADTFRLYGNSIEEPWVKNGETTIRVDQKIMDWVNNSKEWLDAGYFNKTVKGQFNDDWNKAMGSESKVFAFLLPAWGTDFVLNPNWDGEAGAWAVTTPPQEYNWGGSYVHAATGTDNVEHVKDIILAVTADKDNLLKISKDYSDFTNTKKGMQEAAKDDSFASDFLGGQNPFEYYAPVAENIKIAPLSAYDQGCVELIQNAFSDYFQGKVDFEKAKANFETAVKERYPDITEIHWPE

Molecule	binding to BpSBPMLG (in words) (BpSBPMLG)	phosphorolysis activity of BpGH94MLG (in words) (BpGH94MLG)	activity of BpGH16MLG on substrate (initial screening) (BpGH16MLG)	Km (BpGH16MLG (BPGH16)) [mg/mL]	kcat (BpGH16MLG (BPGH16)) [s⁻¹]
OC[C@H]1O[C@@H](O[C@H]2[C@H](O)[C@@H](O)[C@H](O)O[C@@H]2CO)[C@H](O)[C@@H](O)[C@H]1O [lactose]	no detectable affinity	–	–	–	–
OC[C@H]1O[C@H](O[C@H]2[C@H](O)[C@@H](O)[C@H](O)O[C@@H]2CO)[C@H](O)[C@@H](O)[C@@H]1O [maltose]	no detectable affinity	did not show any phosphorolysis activity	did not show activity	–	–
OC[C@H]1O[C@@](CO)(O[C@H]2O[C@H](CO)[C@@H](O)[C@H](O)[C@H]2O)[C@@H](O)[C@@H]1O [sucrose]	–	did not show any phosphorolysis activity	did not show activity	–	–
Gentiobiose	no detectable affinity	did not show any phosphorolysis activity	did not show activity	–	–
Oat β-glucan	–	–	did cleave	0.32 ± 0.05	46 ± 0.8
lentinan	–	–	did cleave	–	–
yeast β-glucan	–	–	did cleave	–	–

Source: paper PMC10318527, “Utilization of dietary mixed-linkage β-glucans by the Firmicute Blautia producta” (The Journal of Biological Chemistry, 2023)
